Data reported in ChEMBL document CHEMBL3779861, “Selective Inhibition of CBX6: A Methyllysine Reader Protein in the Polycomb Family” (ACS Med Chem Lett, 2016).
Non-standard residues stand in square brackets, D forms with d. Residues, ends and D or L forms follow the SMILES beside them. *: point of attachment. X1 = O=C(O)c1cc(NC(=S)*)ccc1-c1c2ccc(=O)cc-2oc2cc(O)ccc12; Biotin = O=C1N[C@H]2[C@H](CS[C@H]2CCCCC(=O)*)N1; Lys(Me3) = C[N+](C)(C)CCCC[C@H](N)C(=O)O; Benzoyl(4-Br) = O=C(c1ccc(Br)cc1)*; Abu = CC[C@H](N)C(=O)O

Columns and labels:
[1] = molecular target: T1, Chromobox protein homolog 7 (Homo sapiens, UniProt O95931); assay: Binding affinity to N-terminal His6-tagged human CBX7 (8 to 62) expressed in Escherichia coli BL21 using FITC-peptide-3 as competitive binding probe by fluorescence polarization assay
T1 sequence (O95931 whole entry): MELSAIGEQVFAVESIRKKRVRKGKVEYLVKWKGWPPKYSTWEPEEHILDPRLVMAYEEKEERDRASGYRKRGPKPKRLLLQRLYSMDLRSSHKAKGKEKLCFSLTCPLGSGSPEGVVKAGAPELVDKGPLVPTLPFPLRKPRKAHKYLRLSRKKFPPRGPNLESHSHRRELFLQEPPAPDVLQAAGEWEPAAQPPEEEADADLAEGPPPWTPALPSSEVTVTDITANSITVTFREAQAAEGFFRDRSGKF

[2] = molecular target: Chromobox protein homolog 7 (Homo sapiens, UniProt O95931, V13A); assay: Binding affinity to human CBX7 V13A mutant expressed in Escherichia coli BL21 by surface plasmon resonance assay
[3] = molecular target: T2, Chromobox protein homolog 6 (Homo sapiens, UniProt O95503); assay: Binding affinity to N-terminal His6-tagged human CBX6 (8 to 65 residues) expressed in Escherichia coli BL21 by surface plasmon resonance assay
T2 sequence (O95503 whole entry): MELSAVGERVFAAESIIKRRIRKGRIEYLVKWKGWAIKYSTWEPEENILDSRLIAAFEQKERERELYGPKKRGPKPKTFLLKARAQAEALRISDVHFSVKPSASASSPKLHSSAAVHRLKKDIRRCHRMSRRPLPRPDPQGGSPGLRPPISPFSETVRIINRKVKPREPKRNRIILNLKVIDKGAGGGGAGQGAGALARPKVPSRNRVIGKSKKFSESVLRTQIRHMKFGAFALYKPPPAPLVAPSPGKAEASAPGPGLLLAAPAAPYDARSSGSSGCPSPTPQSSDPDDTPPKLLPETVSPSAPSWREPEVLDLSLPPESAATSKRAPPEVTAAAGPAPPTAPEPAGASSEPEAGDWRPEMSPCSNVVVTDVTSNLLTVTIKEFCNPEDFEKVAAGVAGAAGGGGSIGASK

[4] = molecular target: T1, Chromobox protein homolog 7; assay: Binding affinity to N-terminal His6-tagged human CBX7 (8 to 62 residues) expressed in Escherichia coli BL21 by surface plasmon resonance assay
[5] = molecular target: T3, Chromobox protein homolog 2 (Homo sapiens, UniProt Q14781); assay: Binding affinity to N-terminal His6-tagged human CBX2 (8 to 62) expressed in Escherichia coli BL21 using FITC-peptide-3 as competitive binding probe by fluorescence polarization assay
T3 sequence (Q14781 whole entry): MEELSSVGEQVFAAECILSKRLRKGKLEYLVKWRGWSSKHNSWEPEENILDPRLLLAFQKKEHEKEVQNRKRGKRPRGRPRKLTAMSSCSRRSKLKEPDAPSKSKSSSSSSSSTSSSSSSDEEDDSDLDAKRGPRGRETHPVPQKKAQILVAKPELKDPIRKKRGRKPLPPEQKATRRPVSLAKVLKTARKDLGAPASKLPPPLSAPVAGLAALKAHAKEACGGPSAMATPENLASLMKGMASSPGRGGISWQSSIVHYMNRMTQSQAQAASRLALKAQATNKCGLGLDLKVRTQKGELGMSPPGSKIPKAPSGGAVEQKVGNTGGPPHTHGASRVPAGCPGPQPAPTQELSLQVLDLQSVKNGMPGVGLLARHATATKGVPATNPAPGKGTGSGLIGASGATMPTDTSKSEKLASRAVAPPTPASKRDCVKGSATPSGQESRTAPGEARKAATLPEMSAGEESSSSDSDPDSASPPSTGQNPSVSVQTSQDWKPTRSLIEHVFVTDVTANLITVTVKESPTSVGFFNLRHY

[6] = molecular target: Chromobox protein homolog 1 (Homo sapiens, UniProt P83916)
[7] = molecular target: T4, E3 SUMO-protein ligase CBX4 (Homo sapiens, UniProt O00257); assay: Binding affinity to N-terminal His6-tagged human CBX4 (8 to 65 residues) expressed in Escherichia coli BL21 using FITC-peptide-3 as competitive binding probe by fluorescence polarization assay
T4 sequence (O00257 whole entry): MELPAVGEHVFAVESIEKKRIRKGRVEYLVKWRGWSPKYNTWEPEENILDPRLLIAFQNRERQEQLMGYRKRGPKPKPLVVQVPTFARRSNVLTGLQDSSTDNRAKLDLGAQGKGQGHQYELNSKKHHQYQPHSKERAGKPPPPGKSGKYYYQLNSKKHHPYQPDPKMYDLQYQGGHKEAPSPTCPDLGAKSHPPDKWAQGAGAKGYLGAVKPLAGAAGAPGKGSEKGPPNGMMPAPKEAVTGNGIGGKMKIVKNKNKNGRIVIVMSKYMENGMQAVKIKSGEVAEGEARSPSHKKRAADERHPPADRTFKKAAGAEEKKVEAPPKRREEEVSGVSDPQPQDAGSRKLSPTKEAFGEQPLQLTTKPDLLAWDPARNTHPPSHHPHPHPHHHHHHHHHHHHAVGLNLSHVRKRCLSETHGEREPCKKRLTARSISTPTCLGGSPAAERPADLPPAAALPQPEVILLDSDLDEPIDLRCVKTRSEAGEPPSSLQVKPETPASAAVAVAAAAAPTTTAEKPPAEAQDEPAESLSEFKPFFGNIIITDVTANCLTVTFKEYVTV

[8] = molecular target: T5, Chromobox protein homolog 8 (Homo sapiens, UniProt Q9HC52); assay: Binding affinity to N-terminal His6-tagged human CBX8 (8 to 61 residues) expressed in Escherichia coli BL21 using FITC-peptide-3 as competitive binding probe by fluorescence polarization assay
T5 sequence (Q9HC52 whole entry): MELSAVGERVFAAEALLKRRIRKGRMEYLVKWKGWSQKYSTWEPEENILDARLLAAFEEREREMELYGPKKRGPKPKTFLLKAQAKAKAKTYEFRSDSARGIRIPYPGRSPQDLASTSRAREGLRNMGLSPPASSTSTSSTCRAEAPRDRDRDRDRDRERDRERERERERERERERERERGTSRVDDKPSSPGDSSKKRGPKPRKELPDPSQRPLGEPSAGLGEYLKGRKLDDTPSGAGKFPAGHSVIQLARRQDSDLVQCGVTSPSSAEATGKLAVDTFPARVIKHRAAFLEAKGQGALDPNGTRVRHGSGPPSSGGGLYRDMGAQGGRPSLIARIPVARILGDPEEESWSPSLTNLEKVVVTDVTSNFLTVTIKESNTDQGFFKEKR

[9] = molecular target: T2, Chromobox protein homolog 6; assay: Binding affinity to N-terminal His6-tagged human CBX6 (8 to 65 residues) expressed in Escherichia coli BL21 using FITC-peptide-3 as competitive binding probe by fluorescence polarization assay

Chromobox protein homolog 1, sequence (P83916 whole entry, the tested form may be a part): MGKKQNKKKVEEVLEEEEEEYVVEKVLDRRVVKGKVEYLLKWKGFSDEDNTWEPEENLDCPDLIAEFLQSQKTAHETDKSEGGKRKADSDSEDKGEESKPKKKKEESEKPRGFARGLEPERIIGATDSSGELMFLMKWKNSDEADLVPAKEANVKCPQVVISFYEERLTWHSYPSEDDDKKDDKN
Chromobox protein homolog 7 (Homo sapiens, UniProt O95931, V13A), sequence (O95931 whole entry V13A, the tested form may be a part): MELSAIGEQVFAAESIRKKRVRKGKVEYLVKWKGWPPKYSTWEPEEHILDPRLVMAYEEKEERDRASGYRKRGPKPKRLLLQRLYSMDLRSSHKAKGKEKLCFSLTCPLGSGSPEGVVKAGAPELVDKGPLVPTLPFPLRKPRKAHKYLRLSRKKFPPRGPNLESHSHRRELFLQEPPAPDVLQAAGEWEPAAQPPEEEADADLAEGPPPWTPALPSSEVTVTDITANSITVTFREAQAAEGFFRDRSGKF

| SMILES | IC50 [1] [nM] | Kd [2] [nM] | Kd [3] [nM] | Kd [4] [nM] | Kd [5] [nM] | Kd [6] [nM] | Kd [7] [nM] | Kd [1] [nM] | Kd [8] [nM] | Kd [9] [nM] |
| --- | --- | --- | --- | --- | --- | --- | --- | --- | --- | --- |
| C[C@H](NC(=O)[C@H](Cc1ccccc1)NC(=O)c1ccc(Br)cc1)C(=O)N[C@@H](Cc1ccc(O)cc1)C(=O)N[C@@H](CCCC[N+](C)(C)C)C(=O)N[C@@H](CO)C(N)=O ({Benzoyl(4-Br)}-FAY[Lys(Me3)]S-NH2) | 1700 |  |  |  |  |  |  |  |  |  |
| C[C@H](NC(=O)[C@H](Cc1ccccc1)NC(=O)c1ccc(Br)cc1)C(=O)N[C@@H](Cc1ccc(O)cc1)C(=O)N[C@@H](CCCC[N+](C)(C)C)C(=O)N[C@@H](CO)C(=O)N[C@@H](CCC(=O)O)C(=O)N[C@@H](CCCCNC(=O)CCCC[C@@H]1SC[C@@H]2NC(=O)N[C@@H]21)C(N)=O ({Benzoyl(4-Br)}-FAY[Lys(Me3)]SEK(Biotin)-NH2) |  | 290 | 110 | 160 |  |  |  |  |  |  |
| CC(C)[C@H](NC(=O)[C@H](Cc1ccccc1)NC(=O)c1ccc(Br)cc1)C(=O)N[C@@H](Cc1ccc(O)cc1)C(=O)N[C@@H](CCCC[N+](C)(C)C)C(=O)N[C@@H](CO)C(=O)N[C@@H](CCC(=O)O)C(=O)N[C@@H](CCCCNC(=O)CCCC[C@@H]1SC[C@@H]2NC(=O)N[C@@H]21)C(N)=O ({Benzoyl(4-Br)}-FVY[Lys(Me3)]SEK(Biotin)-NH2) |  | 24000 | 910 | 34000 |  |  |  |  |  |  |

The remaining lines, values ahead:

| IC50 [1] [nM] | Kd [2] [nM] | Kd [3] [nM] | Kd [4] [nM] | Kd [5] [nM] | Kd [6] [nM] | Kd [7] [nM] | Kd [1] [nM] | Kd [8] [nM] | Kd [9] [nM] | SMILES |
| --- | --- | --- | --- | --- | --- | --- | --- | --- | --- | --- |
|  |  |  |  | 300 | 5500 | 200 | 100 | 1000 | 300 | C[C@H](NC(=O)[C@H](Cc1ccccc1)NC(=O)c1ccc(Br)cc1)C(=O)N[C@@H](Cc1ccc(O)cc1)C(=O)N[C@@H](CCCC[N+](C)(C)C)C(=O)N[C@@H](CO)C(=O)N[C@@H](CCC(=O)O)C(=O)N[C@@H](CCCCNC(=S)Nc1ccc(-c2c3ccc(=O)cc-3oc3cc(O)ccc23)c(C(=O)O)c1)C(N)=O ({Benzoyl(4-Br)}-FAY[Lys(Me3)]SEK(X1)-NH2) |
|  |  |  |  | 17600 | 78400 | 15500 | 5300 | 6000 | 900 | CC(C)[C@H](NC(=O)[C@H](Cc1ccccc1)NC(=O)c1ccc(Br)cc1)C(=O)N[C@@H](Cc1ccc(O)cc1)C(=O)N[C@@H](CCCC[N+](C)(C)C)C(=O)N[C@@H](CO)C(=O)N[C@@H](CCC(=O)O)C(=O)N[C@@H](CCCCNC(=S)Nc1ccc(-c2c3ccc(=O)cc-3oc3cc(O)ccc23)c(C(=O)O)c1)C(N)=O ({Benzoyl(4-Br)}-FVY[Lys(Me3)]SEK(X1)-NH2) |
|  |  |  |  | 1600 | 75000 | 800 | 400 | 1000 | 800 | CC[C@H](NC(=O)[C@H](Cc1ccccc1)NC(=O)c1ccc(Br)cc1)C(=O)N[C@@H](Cc1ccc(O)cc1)C(=O)N[C@@H](CCCC[N+](C)(C)C)C(=O)N[C@@H](CO)C(=O)N[C@@H](CCC(=O)O)C(=O)N[C@@H](CCCCNC(=S)Nc1ccc(-c2c3ccc(=O)cc-3oc3cc(O)ccc23)c(C(=O)O)c1)C(N)=O ({Benzoyl(4-Br)}-F[Abu]Y[Lys(Me3)]SEK(X1)-NH2) |
